Results as given in patent US20130123481A1, “MODIFIED NUCLEOSIDES, NUCLEOTIDES, AND NUCLEIC ACIDS, AND USES THEREOF” (MODERNA THERAPEUTICS, priority 2011, published 2013).

System: human embryonic kidney 293 (HEK293) cells
Assay: Toxicity of Nucleoside Triphosphates (NTPs), CYTO TOX-GLO assay
Format: cell-based
Method: The cytotoxicity of natural and modified nucleoside triphosphates (NTPs) alone or in combination with other bases, was analyzed in human embryonic kidney 293 (HEK293) cells in the absence of transfection reagent. […] 10 ul of the NTPs outlined in Table 12 were combined with 10 ul of lipid dilution and incubated for 30 minutes to form a complex before 80 ul of the HEK293 cell suspension was added to the NTP complex. Natural and modified NTPs were transfected at a concentration of 2.1 nM, 21 nM, 210 nM, 2.1 um, 21 uM, 210 um or 2.1 mM. NTPs in combination were transfected at a total concentration of NTPs of 8.4 nM, 84 nM, 840 nM, 8.4 uM, 84 uM, 840 uM and 8.4 mM.

Cc1c[nH]c(=O)nc1N [5-methyl cytosine]
percent of viable cells (human, 4 h, 2.1 nM): 92.23% | percent of viable cells (human, 4 h, 21 nM): 91.40% | percent of viable cells (human, 4 h, 210 nM): 92.31% | percent of viable cells (human, 4 h, 2.1 uM): 91.31% | percent of viable cells (human, 4 h, 21 uM): 91.16% | percent of viable cells (human, 4 h, 210 uM): 91.54% | percent of viable cells (human, 4 h, 2.1 mM): 92.01% | percent of viable cells (human, 24 h, 2.1 nM): 86.35% | percent of viable cells (human, 24 h, 21 nM): 86.37% | percent of viable cells (human, 24 h, 210 nM): 84.71% | percent of viable cells (human, 24 h, 2.1 uM): 85.14% | percent of viable cells (human, 24 h, 21 uM): 84.72% | percent of viable cells (human, 24 h, 210 uM): 85.76% | percent of viable cells (human, 24 h, 2.1 mM): 87.97% | percent of viable cells (human, 48 h, 2.1 nM): 88.18% | percent of viable cells (human, 48 h, 21 nM): 87.10% | percent of viable cells (human, 48 h, 210 nM): 86.44% | percent of viable cells (human, 48 h, 2.1 uM): 86.18% | percent of viable cells (human, 48 h, 21 uM): 85.74% | percent of viable cells (human, 48 h, 210 uM): 85.94% | percent of viable cells (human, 48 h, 2.1 mM): 87.29% | percent of viable cells (human, 72 h, 2.1 nM): 91.93% | percent of viable cells (human, 72 h, 21 nM): 92.10% | percent of viable cells (human, 72 h, 210 nM): 89.97% | percent of viable cells (human, 72 h, 2.1 uM): 90.92% | percent of viable cells (human, 72 h, 21 uM): 92.26% | percent of viable cells (human, 72 h, 210 uM): 88.10% | percent of viable cells (human, 72 h, 2.1 mM): 96.08%

Nc1ncnc2nc[nH]c12 [Adenine]
percent of viable cells (human, 4 h, 2.1 nM): 93.48% | percent of viable cells (human, 4 h, 21 nM): 93.21% | percent of viable cells (human, 4 h, 210 nM): 90.36% | percent of viable cells (human, 4 h, 2.1 uM): 90.23% | percent of viable cells (human, 4 h, 21 uM): 91.20% | percent of viable cells (human, 4 h, 210 uM): 85.97% | percent of viable cells (human, 4 h, 2.1 mM): 90.03% | percent of viable cells (human, 24 h, 2.1 nM): 86.44% | percent of viable cells (human, 24 h, 21 nM): 87.19% | percent of viable cells (human, 24 h, 210 nM): 86.94% | percent of viable cells (human, 24 h, 2.1 uM): 86.81% | percent of viable cells (human, 24 h, 21 uM): 86.86% | percent of viable cells (human, 24 h, 210 uM): 87.31% | percent of viable cells (human, 24 h, 2.1 mM): 88.42% | percent of viable cells (human, 48 h, 2.1 nM): 92.12% | percent of viable cells (human, 48 h, 21 nM): 91.13% | percent of viable cells (human, 48 h, 210 nM): 89.17% | percent of viable cells (human, 48 h, 2.1 uM): 89.80% | percent of viable cells (human, 48 h, 21 uM): 89.94% | percent of viable cells (human, 48 h, 210 uM): 90.55% | percent of viable cells (human, 48 h, 2.1 mM): 93.71% | percent of viable cells (human, 72 h, 2.1 nM): 95.74% | percent of viable cells (human, 72 h, 21 nM): 93.88% | percent of viable cells (human, 72 h, 210 nM): 92.22% | percent of viable cells (human, 72 h, 2.1 uM): 94.58% | percent of viable cells (human, 72 h, 21 uM): 93.83% | percent of viable cells (human, 72 h, 210 uM): 94.81% | percent of viable cells (human, 72 h, 2.1 mM): 97.49%

Nc1cc[nH]c(=O)n1 [Cytosine]
percent of viable cells (human, 4 h, 2.1 nM): 93.34% | percent of viable cells (human, 4 h, 21 nM): 93.11% | percent of viable cells (human, 4 h, 210 nM): 88.95% | percent of viable cells (human, 4 h, 2.1 uM): 90.49% | percent of viable cells (human, 4 h, 21 uM): 91.41% | percent of viable cells (human, 4 h, 210 uM): 89.88% | percent of viable cells (human, 4 h, 2.1 mM): 90.51% | percent of viable cells (human, 24 h, 2.1 nM): 85.78% | percent of viable cells (human, 24 h, 21 nM): 86.16% | percent of viable cells (human, 24 h, 210 nM): 86.12% | percent of viable cells (human, 24 h, 2.1 uM): 86.70% | percent of viable cells (human, 24 h, 21 uM): 85.72% | percent of viable cells (human, 24 h, 210 uM): 86.33% | percent of viable cells (human, 24 h, 2.1 mM): 86.92% | percent of viable cells (human, 48 h, 2.1 nM): 88.99% | percent of viable cells (human, 48 h, 21 nM): 88.95% | percent of viable cells (human, 48 h, 210 nM): 85.36% | percent of viable cells (human, 48 h, 2.1 uM): 87.73% | percent of viable cells (human, 48 h, 21 uM): 87.28% | percent of viable cells (human, 48 h, 210 uM): 87.81% | percent of viable cells (human, 48 h, 2.1 mM): 94.23% | percent of viable cells (human, 72 h, 2.1 nM): 94.22% | percent of viable cells (human, 72 h, 21 nM): 91.80% | percent of viable cells (human, 72 h, 210 nM): 88.22% | percent of viable cells (human, 72 h, 2.1 uM): 88.93% | percent of viable cells (human, 72 h, 21 uM): 92.22% | percent of viable cells (human, 72 h, 210 uM): 92.34% | percent of viable cells (human, 72 h, 2.1 mM): 97.15%

Nc1nc2nc[nH]c2c(=O)[nH]1 [Guanine]
percent of viable cells (human, 4 h, 2.1 nM): 93.33% | percent of viable cells (human, 4 h, 21 nM): 92.84% | percent of viable cells (human, 4 h, 210 nM): 90.00% | percent of viable cells (human, 4 h, 2.1 uM): 90.60% | percent of viable cells (human, 4 h, 21 uM): 91.36% | percent of viable cells (human, 4 h, 210 uM): 90.14% | percent of viable cells (human, 4 h, 2.1 mM): 90.96% | percent of viable cells (human, 24 h, 2.1 nM): 85.41% | percent of viable cells (human, 24 h, 21 nM): 85.50% | percent of viable cells (human, 24 h, 210 nM): 86.35% | percent of viable cells (human, 24 h, 2.1 uM): 86.13% | percent of viable cells (human, 24 h, 21 uM): 85.93% | percent of viable cells (human, 24 h, 210 uM): 85.86% | percent of viable cells (human, 24 h, 2.1 mM): 86.37% | percent of viable cells (human, 48 h, 2.1 nM): 89.57% | percent of viable cells (human, 48 h, 21 nM): 87.92% | percent of viable cells (human, 48 h, 210 nM): 85.31% | percent of viable cells (human, 48 h, 2.1 uM): 87.89% | percent of viable cells (human, 48 h, 21 uM): 88.18% | percent of viable cells (human, 48 h, 210 uM): 87.05% | percent of viable cells (human, 48 h, 2.1 mM): 93.83% | percent of viable cells (human, 72 h, 2.1 nM): 93.72% | percent of viable cells (human, 72 h, 21 nM): 92.55% | percent of viable cells (human, 72 h, 210 nM): 92.19% | percent of viable cells (human, 72 h, 2.1 uM): 92.30% | percent of viable cells (human, 72 h, 21 uM): 92.39% | percent of viable cells (human, 72 h, 210 uM): 91.41% | percent of viable cells (human, 72 h, 2.1 mM): 97.04%

Cn1cc([C@@H]2O[C@H](CO)[C@@H](O)[C@H]2O)c(=O)[nH]c1=O [N1-methyl pseudouridine]
percent of viable cells (HEK293, individual NTP 2.1 nM, 4 hr): 91.89% | percent of viable cells (HEK293, individual NTP 2.1 nM, 24 hr): 87.79% | percent of viable cells (HEK293, individual NTP 2.1 nM, 48 hr): 87.81% | percent of viable cells (HEK293, individual NTP 2.1 nM, 72 hr): 92.98% | percent of viable cells (HEK293, individual NTP 21 nM, 4 hr): 91.44% | percent of viable cells (HEK293, individual NTP 21 nM, 24 hr): 86.85% | percent of viable cells (HEK293, individual NTP 21 nM, 48 hr): 86.72% | percent of viable cells (HEK293, individual NTP 21 nM, 72 hr): 92.84% | percent of viable cells (HEK293, individual NTP 210 nM, 4 hr): 92.15% | percent of viable cells (HEK293, individual NTP 210 nM, 24 hr): 85.89% | percent of viable cells (HEK293, individual NTP 210 nM, 48 hr): 87.38% | percent of viable cells (HEK293, individual NTP 210 nM, 72 hr): 92.40% | percent of viable cells (HEK293, individual NTP 2.1 uM, 4 hr): 90.41% | percent of viable cells (HEK293, individual NTP 2.1 uM, 24 hr): 85.72% | percent of viable cells (HEK293, individual NTP 2.1 uM, 48 hr): 85.85% | percent of viable cells (HEK293, individual NTP 2.1 uM, 72 hr): 92.25% | percent of viable cells (HEK293, individual NTP 21 uM, 4 hr): 91.48% | percent of viable cells (HEK293, individual NTP 21 uM, 24 hr): 85.17% | percent of viable cells (HEK293, individual NTP 21 uM, 48 hr): 87.52% | percent of viable cells (HEK293, individual NTP 21 uM, 72 hr): 93.83% | percent of viable cells (HEK293, individual NTP 210 uM, 4 hr): 91.43% | percent of viable cells (HEK293, individual NTP 210 uM, 24 hr): 86.48% | percent of viable cells (HEK293, individual NTP 210 uM, 48 hr): 86.02% | percent of viable cells (HEK293, individual NTP 210 uM, 72 hr): 93.03% | percent of viable cells (HEK293, individual NTP 2.1 mM, 4 hr): 92.45% | percent of viable cells (HEK293, individual NTP 2.1 mM, 24 hr): 88.92% | percent of viable cells (HEK293, individual NTP 2.1 mM, 48 hr): 89.84% | percent of viable cells (HEK293, individual NTP 2.1 mM, 72 hr): 96.80%
